pEC50: −log10 of the molar value.
Tests used:
h-TGR5 = target: T1, h-TGR5 (Homo sapiens, UniProt Q8TDU6); assay: TGR5 cAMP Assay using Cisbio cAMP Dynamic 2 htrf assay kit; type: cell-based; details: hTGR5CRE-luc HEK 293 cells
T1 sequence (Q8TDU6 1-330): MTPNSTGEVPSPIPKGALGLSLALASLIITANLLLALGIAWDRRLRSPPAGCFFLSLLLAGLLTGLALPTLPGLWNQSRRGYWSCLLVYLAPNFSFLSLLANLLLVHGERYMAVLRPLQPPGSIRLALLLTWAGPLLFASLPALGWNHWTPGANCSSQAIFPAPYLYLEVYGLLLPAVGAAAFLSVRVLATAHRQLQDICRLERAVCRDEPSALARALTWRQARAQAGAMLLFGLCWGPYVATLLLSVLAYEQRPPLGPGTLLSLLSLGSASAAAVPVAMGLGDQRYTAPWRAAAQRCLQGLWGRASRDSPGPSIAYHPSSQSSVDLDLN

human TGR5 (h-TGR5) = target: T2, human TGR5 (h-TGR5) (Homo sapiens, UniProt Q8TDU6); assay: TGR5/CRE-Luciferase Assay; type: cell-based; details: HEK 293 hTGR5/CRE-Luc cells, 6 hours incubation, read-out: CRE-Luc Agonist (EC50)
T2 sequence (Q8TDU6 1-330): T1 sequence (Q8TDU6 1-330)
Procedure, shortened: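 HEK 293 CRE-Luciferase cells stably expressing the receptor, plated in DMEM 18-20 h before assay, then exposed to serially diluted compounds (DMEM with 5% DMSO) for 6 h. Luciferase read-out after lysis; EC50 from dose-response.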

| Compound | pEC50 (h-TGR5) | pEC50 (human TGR5 (h-TGR5)) |
| --- | --- | --- |
| COc1cc(C(C)(C)c2cnc(SCc3c(F)cc(S(=O)(=O)N(CCC[N+](C)(C)C)[C@@H](C)C(=O)O)cc3Cl)n2-c2ccc(F)cc2)ccc1Cl [Compound 14x, 3-([(1S)-1-carboxyethyl]{[3-chloro-4-({[5-{1-[4-chloro-3-(methyloxy)phenyl]-1-methylethyl}-1-(4-fluorophenyl)-1H-imidazol-2-yl]thio}methyl)-5-fluorophenyl]sulfonyl}amino)-N,N,N-trimethylpropan-1-aminium] | > 7.00 | > 7.00 |
| COc1cc(C(C)(C)c2cnc(SCc3c(F)cc(S(=O)(=O)N(CCC[N+](C)(C)C)[C@H](C)C(=O)O)cc3Cl)n2-c2ccc(F)cc2)ccc1Cl [Compound 14y, 3-([(1R)-1-carboxyethyl]{[3-chloro-4-({[5-{1-[4-chloro-3-(methyloxy)phenyl]-1-methylethyl}-1-(4-fluorophenyl)-1H-imidazol-2-yl]thio}methyl)-5-fluorophenyl]sulfonyl}amino)-N,N,N-trimethylpropan-1-aminium] | > 7.00 | > 7.00 |
| COc1cc(C(C)(C)c2cnc(SCc3c(F)cc(S(=O)(=O)N(CCC[N+](C)(C)C)C4(C(=O)O)CC4)cc3Cl)n2-c2ccc(F)cc2)ccc1Cl [Compound 14z, 3-[(1-carboxycyclopropyl){[3-chloro-4-({[5-{1-[4-chloro-3-(methyloxy)phenyl]-1-methylethyl}-1-(4-fluorophenyl)-1H-imidazol-2-yl]thio}methyl)-5-fluorophenyl]sulfonyl}amino]-N,N,N-trimethylpropan-1-aminium] | > 7.00 | > 7.00 |
| COc1cc(C(C)(C)c2cnc(SCc3c(F)cc(S(=O)(=O)N(CC4CC[N+](C)(C)CC4)[C@H](C)C(=O)O)cc3F)n2-c2ccc(F)cc2)ccc1Cl [Compound 15, 2,2,2-trifluoroacetate] | > 7.00 | > 7.00 |
| COc1cc(C(C)(C)c2cnc(SCc3c(F)cc(S(=O)(=O)N(CCC[n+]4ccccc4)[C@H](C)C(=O)O)cc3Cl)n2-c2ccc(F)cc2)ccc1Cl [Compound 15a, (R)-1-(3-(N-(1-carboxyethyl)-3-chloro-4-((5-(2-(4-chloro-3-methoxyphenyl)propan-2-yl)-1-(4-fluorophenyl)-1H-imidazol-2-ylthio)methyl)-5-fluorophenylsulfonamido)propyl)pyridinium chloride] | > 7.00 | > 7.00 |
| COc1cc(C(C)(C)c2cnc(SCc3c(F)cc(S(=O)(=O)N(CCC[n+]4ccn(C)c4)[C@H](C)C(=O)O)cc3Cl)n2-c2ccc(F)cc2)ccc1Cl [Compound 15b, (R)-3-(3-(N-(1-carboxyethyl)-3-chloro-4-((5-(2-(4-chloro-3-methoxyphenyl)propan-2-yl)-1-(4-fluorophenyl)-1H-imidazol-2-ylthio)methyl)-5-fluorophenylsulfonamido)propyl)-1-methyl-1H-imidazol-3-ium chloride] | > 7.00 | > 7.00 |
| COc1cc(C(C)(C)c2cnc(SCc3c(F)cc(S(=O)(=O)N(C)[C@@H](CCC[N+](C)(C)C)C(=O)O)cc3F)n2-c2ccc(F)cc2)ccc1Cl [Compound 16, (S)-4-carboxy-4-(4-((5-(2-(4-chloro-3-methoxyphenyl)propan-2-yl)-1-(4-fluorophenyl)-1H-imidazol-2-ylthio)methyl)-3,5-difluoro-N-methylphenylsulfonamido)-N,N,N-trimethylbutan-1-aminium 2,2,2-trifluoroacetate] | > 7.00 | > 7.00 |
| COc1cc(C(C)(C)c2cnc(SCc3c(F)cc(S(=O)(=O)N(C)[C@@H](CCC[N+](C)(C)C)C(=O)[O-])cc3F)n2-c2ccc(F)cc2)ccc1Cl [Compound 17] | > 7.00 | > 7.00 |
| CCN([C@@H](CCC[N+](C)(C)C)C(=O)O)S(=O)(=O)c1cc(F)c(CSc2ncc(C(C)(C)c3ccc(Cl)c(OC)c3)n2-c2ccc(F)cc2)c(F)c1 [Compound 17a, (S)-4-carboxy-4-(4-((5-(2-(4-chloro-3-methoxyphenyl)propan-2-yl)-1-(4-fluorophenyl)-1H-imidazol-2-ylthio)methyl)-N-ethyl-3,5-difluorophenylsulfonamido)-N,N,N-trimethylbutan-1-aminium 2,2,2-trifluoroacetate] | > 7.00 | > 7.00 |
| COc1cc(C(C)(C)c2cnc(SCc3c(F)cc(S(=O)(=O)N(C)[C@@H](CCC[N+](C)(C)C)C(=O)O)cc3Cl)n2-c2ccc(F)cc2)ccc1Cl [Compound 17b, (S)-4-carboxy-4-(3-chloro-4-((5-(2-(4-chloro-3-methoxyphenyl)propan-2-yl)-1-(4-fluorophenyl)-1H-imidazol-2-ylthio)methyl)-5-fluoro-N-methylphenylsulfonamido)-N,N,N-trimethylbutan-1-aminium 2,2,2-trifluoroacetate] | > 7.00 | > 7.00 |
| COc1cc(C(C)(C)c2cnc(SCc3c(F)cc(S(=O)(=O)N(C)[C@H](CCC[N+](C)(C)C)C(=O)O)cc3F)n2-c2ccc(F)cc2)ccc1Cl [Compound 17c, (R)-4-carboxy-4-(4-((5-(2-(4-chloro-3-methoxyphenyl)propan-2-yl)-1-(4-fluorophenyl)-1H-imidazol-2-ylthio)methyl)-3,5-difluoro-N-methylphenylsulfonamido)-N,N,N-trimethylbutan-1-aminium 2,2,2-trifluoroacetate] | > 7.00 | > 7.00 |
| COc1cc(C(C)(C)c2cnc(SCc3c(F)cc(S(=O)(=O)N(C)[C@H](CCC[N+](C)(C)C)C(=O)O)cc3Cl)n2-c2ccc(F)cc2)ccc1Cl [Compound 17d, (R)-4-carboxy-4-(3-chloro-4-((5-(2-(4-chloro-3-methoxyphenyl)propan-2-yl)-1-(4-fluorophenyl)-1H-imidazol-2-ylthio)methyl)-5-fluoro-N-methylphenylsulfonamido)-N,N,N-trimethylbutan-1-aminium 2,2,2-trifluoroacetate] | > 7.00 | > 7.00 |
| COc1cc(C(C)(C)c2cnc(SCc3c(F)cc(S(=O)(=O)N[C@@H](CCCC[N+](C)(C)C)C(=O)O)cc3Cl)n2-c2ccc(F)cc2)ccc1Cl [Compound 17e, (S)-5-carboxy-5-(3-chloro-4-((5-(2-(4-chloro-3-methoxyphenyl)propan-2-yl)-1-(4-fluorophenyl)-1H-imidazol-2-ylthio)methyl)-5-fluorophenylsulfonamido)-N,N,N-trimethylpentan-1-aminium 2,2,2-trifluoroacetate] | > 7.00 | > 7.00 |
| COc1cc(C(C)(C)c2cnc(SCc3c(F)cc(S(=O)(=O)N(C)[C@@H](CCCC[N+](C)(C)C)C(=O)O)cc3Cl)n2-c2ccc(F)cc2)ccc1Cl [Compound 17f, (S)-5-carboxy-5-(3-chloro-4-((5-(2-(4-chloro-3-methoxyphenyl)propan-2-yl)-1-(4-fluorophenyl)-1H-imidazol-2-ylthio)methyl)-5-fluoro-N-methylphenylsulfonamido)-N,N,N-trimethylpentan-1-aminium 2,2,2-trifluoroacetate] | > 7.00 | > 7.00 |
| COc1cc(C(C)(C)c2cnc(SCc3c(F)cc(S(=O)(=O)N(C)[C@@H](CCCC[N+](C)(C)C)C(=O)O)cc3F)n2-c2ccc(F)cc2)ccc1Cl [Compound 17g, (S)-5-carboxy-5-(4-((5-(2-(4-chloro-3-methoxyphenyl)propan-2-yl)-1-(4-fluorophenyl)-1H-imidazol-2-ylthio)methyl)-3,5-difluoro-N-methylphenylsulfonamido)-N,N,N-trimethylpentan-1-aminium 2,2,2-trifluoroacetate] | > 7.00 | > 7.00 |
| CN([C@@H](CCCC[N+](C)(C)C)C(=O)O)S(=O)(=O)c1cc(F)c(CSc2ncc(C(C)(C)c3ccc(Cl)c(Cl)c3)n2-c2ccc(F)cc2)c(Cl)c1 [Compound 17h, (S)-5-carboxy-5-(3-chloro-4-((5-(2-(3,4-dichlorophenyl)propan-2-yl)-1-(4-fluorophenyl)-1H-imidazol-2-ylthio)methyl)-5-fluoro-N-methylphenylsulfonamido)-N,N,N-trimethylpentan-1-aminium 2,2,2-trifluoroacetate] | > 7.00 | > 7.00 |
| COc1cc(C(C)(C)c2cnc(SCc3c(F)cc(S(=O)(=O)N[C@H](CCCC[N+](C)(C)C)C(=O)O)cc3Cl)n2-c2ccc(F)cc2)ccc1Cl [Compound 17i, (R)-5-carboxy-5-(3-chloro-4-((5-(2-(4-chloro-3-methoxyphenyl)propan-2-yl)-1-(4-fluorophenyl)-1H-imidazol-2-ylthio)methyl)-5-fluorophenylsulfonamido)-N,N,N-trimethylpentan-1-aminium 2,2,2-trifluoroacetate] | > 7.00 | > 7.00 |
| COc1cc(C(C)(C)c2cnc(SCc3c(F)cc(S(=O)(=O)N(C)[C@H](CCCC[N+](C)(C)C)C(=O)O)cc3Cl)n2-c2ccc(F)cc2)ccc1Cl [Compound 17j, (R)-5-carboxy-5-(3-chloro-4-((5-(2-(4-chloro-3-methoxyphenyl)propan-2-yl)-1-(4-fluorophenyl)-1H-imidazol-2-ylthio)methyl)-5-fluoro-N-methylphenylsulfonamido)-N,N,N-trimethylpentan-1-aminium 2,2,2-trifluoroacetate] | > 7.00 | > 7.00 |

— patent US8846739B2, “TGR5 agonists” (Exelixis Patent Company LLC, priority 2009, dated 2014)
